Each compound was assayed on Trypanosoma cruzi (assay: Trypanocidal activity against Trypanosoma cruzi Y epimastigotes after 72 hrs by MTT assay). Details: not given.
Format: functional, organism-based

For `CC(C)=CCCC1(C)C=Cc2cc(C(=O)O)cc(CC=C(C)C)c2O1` (racemic; form 2) [GAUDICHAUDIANIC ACID], the IC50 was 197 µM.
`CC(C)=CCCC1(C)C=Cc2cc(C(=O)O)cc(CC=C(C)C)c2O1` (stereo in doubt; 1) [GAUDICHAUDIANIC ACID] showed an IC50 of 55.8 µM.
`CC(C)=CCCC1(C)C=Cc2cc(C(=O)O)cc(CC=C(C)C)c2O1` (racemic; form 1) [GAUDICHAUDIANIC ACID] was tested, and the IC50 was 111 µM.

Same assay, conditions: Trypanosoma cruzi, Y, 72 h

`CC(C)=CCC[C@@]1(C)C=Cc2cc(C(=O)O)cc(CC=C(C)C)c2O1` and `CC(C)=CCC[C@]1(C)C=Cc2cc(C(=O)O)cc(CC=C(C)C)c2O1` are within 1.5-fold of each other in IC50: 176 µM for the first, 224 µM for the second.

Compound `O=C(Cn1ccnc1[N+](=O)[O-])NCc1ccccc1` [BENZNIDAZOLE] has an IC50 of 37.3 µM.

Source: ChEMBL document CHEMBL1781904, “Absolute configuration and selective trypanocidal activity of gaudichaudianic acid enantiomers” (J Nat Prod, 2011)
